Data from US20080275134A1, “Methods for Treatment of Retinal Degenerative Disease” (University of Washington, priority 2005, published 2008).

How the values were obtained:
[1] = target: T1, LRAT (Bos taurus, UniProt Q9BGL2); assay: LRAT reaction: formation of all-trans-retinyl esters by RPE microsomes; assay type: biochemical, bovine; conditions: all-trans-retinol substrate
T1 construct: Purified RPE microsomes were the source of the enzymes; from tissue; host or cells: bovine retinal pigment epithelium microsomes
T1 sequence (Q9BGL2 1-230): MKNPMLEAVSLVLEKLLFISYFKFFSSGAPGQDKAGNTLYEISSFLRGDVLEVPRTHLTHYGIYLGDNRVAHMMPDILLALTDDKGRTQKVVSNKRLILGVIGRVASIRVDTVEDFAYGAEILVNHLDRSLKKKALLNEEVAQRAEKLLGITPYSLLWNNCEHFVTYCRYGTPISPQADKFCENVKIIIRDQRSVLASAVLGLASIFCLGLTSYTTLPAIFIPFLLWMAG
Method: To test if 11-cis-retinylamine (11-cis Ret-NH2) affects isomerization and esterification, an in vitro assay was employed. In this assay both of the all-trans-retinyl esters formed in the reaction catalyzed by LRAT and 11-cis-retinol production by isomerase were measured (6). Purified RPE microsomes were the source of the enzymes, and all-trans-retinol was the substrate. […] Inhibition of isomerization by Ret-NH2 is not due to binding of CRALBP or competition with 11-cis-retinol for binding to CRALBP. […] An increased concentration of all-trans-retinol lowered the level of inhibition, as illustrated in FIG. 2B. […] Dixon's and Lineweaver-Burk plots in the standard assay conditions yielded Ki=0.1 μM for Ret-NH2 when all-trans-retinol (KM=0.3 μM) was assumed to be a substrate. […] This estimated value reflects the very potent nature of the inhibition by 11-cis-Ret-NH2.
Materials—Fresh bovine eyes were obtained from a local slaughterhouse (Schenk Packing Co., Inc., Stanwood, Wash.). Preparation of bovine RPE microsomes was performed according to previously described methods (Stecher et al., J Biol Chem 274:8577-85, 1999). […]
Reaction conditions for isomerase and LRAT reaction—The isomerase reaction was performed essentially as described previously (Stecher et al., J Biol Chem 274:8577-85, 1999). […] The average values were used and the standard deviations were calculated.

[2] = target: CRALBP (Homo sapiens, UniProt P12271); assay: analysis of retinoids bound to CRALBP isolated from the reaction mixture; assay type: binding
Chain of CRALBP (P12271 whole entry, species assumed): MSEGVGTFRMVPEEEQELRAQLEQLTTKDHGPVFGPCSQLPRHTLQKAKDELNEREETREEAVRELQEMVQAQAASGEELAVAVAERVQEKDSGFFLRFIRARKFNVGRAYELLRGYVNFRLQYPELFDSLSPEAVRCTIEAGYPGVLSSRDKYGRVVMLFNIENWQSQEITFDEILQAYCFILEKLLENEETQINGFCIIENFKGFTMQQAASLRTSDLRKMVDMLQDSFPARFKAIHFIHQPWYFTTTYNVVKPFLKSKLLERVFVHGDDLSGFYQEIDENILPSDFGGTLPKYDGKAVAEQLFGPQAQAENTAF

[3] = tested on: retinyl acetate hydrolase; assay: direct assay of retinyl acetate hydrolase present in the RPE; assay type: biochemical; conditions: direct assays
[4] = target: T2, CYP26A1 (Homo sapiens, UniProt O43174); assay: oxidation in HEK-293 cells transfected with CYP26A1 cDNA; assay type: in vitro ADME
T2 construct: expressed in transfected cells; host or cells: HEK-293
T2 sequence (O43174 1-497): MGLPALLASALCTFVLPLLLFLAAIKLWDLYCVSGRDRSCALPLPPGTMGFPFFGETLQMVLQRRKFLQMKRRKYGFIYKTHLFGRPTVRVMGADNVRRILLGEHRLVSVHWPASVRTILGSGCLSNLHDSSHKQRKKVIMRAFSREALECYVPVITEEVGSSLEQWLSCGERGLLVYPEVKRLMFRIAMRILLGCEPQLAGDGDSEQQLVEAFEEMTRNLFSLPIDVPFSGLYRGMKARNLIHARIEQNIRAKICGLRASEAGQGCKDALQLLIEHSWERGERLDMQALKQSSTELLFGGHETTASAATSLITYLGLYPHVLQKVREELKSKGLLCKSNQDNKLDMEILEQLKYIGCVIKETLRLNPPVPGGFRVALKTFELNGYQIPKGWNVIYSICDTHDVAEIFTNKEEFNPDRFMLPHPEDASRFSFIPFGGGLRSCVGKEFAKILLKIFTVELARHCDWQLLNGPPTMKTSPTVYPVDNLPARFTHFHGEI
Description: (§1) Next, the RA oxidation pathway was investigated. […] In addition to secretion, Ret-NH2 might be degraded first by deamination to all-trans-retinol/retinal, which was seen to increase in Ret-NH2 treated cells. […] These observations explain the long-lasting effect of RetNH2, as the amide is stored and hydrolyzed back to the free amine.

[5] = HPLC and mass spectrometry analysis of liver samples of treated mice; assay type: in vivo, mouse
Description: as §1

[6] = observation of mice for systemic toxicity after oral gavage; assay type: in vivo; conditions: single doses 0.5 to 100 mg/kg
[7] = tested on: RAR; assay: F9-RARE-lacZ reporter cell line, β-galactosidase activity (DR5 elements); assay type: cell-based; conditions: 24 hours treatment, micromolar concentrations
Description: 13-cis-RA can isomerize to all-trans-RA and then to 9-cis-RA, both of which are potent ligands of the RA receptor (RAR). 9-cis-RA also binds and activates the retinoid X receptor (RXR). This contributes to the toxicity of the RAR and RXR ligands. It was investigated whether Ret-NH2 can activate these nuclear receptor using reporter-cells as described previously (20). A β-galactosidase activity assay was employed to examine if all-trans-RA, 9-cis-RA, and Ret-NH2 are agonists for these nuclear receptors.
F9-RARE-lacZ cells express endogenous RAR and RXR and were transfected with a construct of lacZ under the control of a minimal promoter and upstream DR5 elements (1). F9-RARE-lacZ cells were treated with different doses of all-trans-RA or Ret-NH2 for 24 hours after which the cells were harvested and the β-galactosidase activity was measured using the soluble substrate o-nitrophenyl β-D-galactopyranoside. The colorless substrate was cleaved by β-galactosidase to yellow colored o-nitrophenol, whose absorbance was measured at 420 nm using a spectrophotometer. The experiment was repeated twice with similar results. The RARE reporter cell line F9-RARE-lacZ (SIL15-RA) was a kind gift from Dr. Michael Wagner (SUNY Downstate Medical Center) and Dr. Peter McCaffery (University of Massachusetts Medical School). […]

Row | SMILES | formation of all-trans-retinyl esters (LRAT activity) [1] | binding to CRALBP [2] | inhibition of retinyl acetate hydrolase [3] | oxidation by CYP26A1 [4] | metabolite found in liver [5] | symptoms of systemic toxicity such as weight loss or gastrointestinal disorder [6] | activation of transcription through RAR (DR5 RARE) [7]
1 | CC1=C(/C=C/C(C)=C/C=C/C(C)=C/CN)C(C)(C)CCC1 [Ret-NH2, Retinylamine] | does not inhibit | does not bind | did not inhibited | no evidence of the presence of hydroxy- or oxo-Ret-NH2 | amidated to N-retinylpalmitamide |  | 
2 | CC1=C(/C=C/C(C)=C/C=C/C(C)=C/CN)C(C)(C)CCC1 [all-trans-Ret-NH2, all-trans-retinylamine] |  |  |  |  |  | did not exhibit symptoms of systemic toxicity | does not activate protein transcription
